Experimental data reported in US20230069804A1, “METHODS AND COMPOSITIONS FOR MODULATING SPLICING” (SkyHawk Therapeutics, Inc., priority 2019, published 2023).
Like-named read-outs stand apart in the source and are kept apart here.

Experiments:
SMN protein = SMN protein assay (MSD) in SMA patient fibroblasts GM03813; format: cell-based; details: SMA patient fibroblasts GM03813, 48 hours
Protocol: Compounds were tested on spinal muscular atrophy (SMA) patient fibroblasts (GM03813, Coriell) at doses ranging from 2.5 μM to 0.6 nM. 7000 cells/well were seeded in 96-well plates. Compounds were incubated for 48 hours and the cells were lysed with 100 μL of lysis buffer. 20 μL of lysate was used for SMN protein measurement by Mesoscale Discovery (MSD) assay developed by PharmOptima (Michigan). A standard curve prepared with SMN protein ranging from 1 μg/ml to 19.5 pg/ml was used in each MSD plate to calculate the absolute SMN protein amount in each sample.

MDR1 = experiment: MDCK-MDR1 permeability assay (BBB penetration potential); format: in vitro ADME; details: dog; for Papp A→B at 120 min, 5 μM / Papp B→A at 120 min, 5 μM: MDCK-MDR1, pH 7.4
Protocol: (§1) Each determination is performed in duplicate. […] Analytical conditions are outlined below.
(§2) Papp=(dCr/dt)×Vr/(A×CA) (1)

[1] = test system: MDR1-MDCK cell monolayers; experiment: as above; format: in vitro ADME; details: 5 μM, 120 minutes; for MDCK-MDR1: % Recov A-B / MDCK-MDR1: % Recov B-A: pH 7.4
Protocol: as §1, §2

SMN2 = experiment: Quantitative splicing assay (SMN) in SMA patient fibroblasts GM03813; format: cell-based; details: Homo sapiens, Fibroblast, SMA patient fibroblasts GM03813, 24 h; for IC50: read-out: SMN2 Potency - Splicing: Splicing D7 IC50 (average); for EC50: read-out: SMN2 Potency - Splicing: Splicing FL EC50 (average)
Protocol: Spinal muscular atrophy (SMA) patient fibroblasts (GM03813, Coriell) are plated in 96-well plates at 50,000 cells/well. Immediately after plating, cells are dosed with compounds for 24 h at concentrations ranging from 2.5 μM to 0.6 nM (0.1% DMSO). Treated cells are lysed and cDNA synthesized using the Fast Advanced Cells-to-Ct kit (Thermofisher A35378) according to the manufacturer's instructions. 2 μL of each cDNA are used in qPCR reactions. The qPCR reactions are prepared in 384-well plates in 10 μL volume, using TaqMan™ Fast Advanced Master Mix (ThermoFisher; 4444965) with primers and probes shown in the table below. Reactions are run in a Quant Studio 6 qPCR instrument with default settings.
It is to be understood that the absolute stereochemistry for compounds of Table 3 is not determined.

[2] = Fibroblast, 48 h, read-out: SMN2 Potency - Protein: Protein FL EC50 (average)
[3] = MDCK-MDR1, pH 7.4, Papp (B-to-A)/Papp (A-to-B), read-out: MDCK-MDR1: Efflux

| SMILES | EC50 (SMN protein; Fibroblast, 48 h, separated enantiomers, told apart by chiral retention time, read-out: SMN EC50) | EC50 (SMN protein; separated enantiomers, told apart by chiral retention time, read-out: SMN EC50) | efflux ratio at 120 min, 5 μM (MDR1; MDCK-MDR1, pH 7.4, Papp (B-to-A)/Papp (A-to-B), 5 μM, 120 minutes, separated enantiomers, told apart by chiral retention time, read-out: MDCK MDRP1 Efflux Ratio) | MDCK MDRP1 Efflux Ratio ([1]; Papp (B-to-A)/Papp (A-to-B), separated enantiomers, told apart by chiral retention time) | EC50 (SMN protein; [2]) | efflux ratio at 120 min, 5 μM (MDR1; [3]) | Papp A→B at 120 min, 5 μM (MDR1; 5 μM, 120 minutes) | Papp B→A at 120 min, 5 μM (MDR1; 5 μM, 120 minutes) | MDCK-MDR1: % Recov A-B [1] | MDCK-MDR1: % Recov B-A [1] | IC50 (SMN2) | EC50 (SMN2) |
| --- | --- | --- | --- | --- | --- | --- | --- | --- | --- | --- | --- | --- |
| CN(c1nnc(-c2ccc(-c3ccn(C)c(=O)c3)cc2O)s1)[C@@H]1C[C@H]2CC[C@H](N2)[C@@H]1F (racemic) [4A/4B, 4-[4-(5-{[(1S,2S,3R)-2-fluoro-8-azabicyclo[3.2.1]octan-3-yl](methyl)amino}-1,3,4-thiadiazol-2-yl)-3-hydroxyphenyl]-1-methyl-1,2-dihydropyridin-2-one and 4-[4-(5-{[(2R,3S,5S)-2-fluoro-8-azabicyclo[3.2.1]octan-3-yl](methyl)amino}-1,3,4-thiadiazol-2-yl)-3-hydroxyphenyl]-1-methyl-1,2-dihydropyridin-2-one] | 51 to 100 nM | 101 to 500 nM | 54 | 40 |  |  |  |  |  |  |  |  |
| COc1cc(-c2ccc(-c3nnc(N(C)[C@@H]4C[C@H]5CC[C@H](N5)[C@@H]4F)s3)c(O)c2)ncn1 (single isomer, unassigned) [Compound E-5A] |  |  |  |  | 16 to 50 nM | 2 | 7.8 ×10⁻⁶ cm/s | 19.1 ×10⁻⁶ cm/s | 41% | 61% | 51 to 100 nM | 51 to 100 nM |
| CN(c1nnc(-c2cc(F)c(-c3cn[nH]c3)cc2O)s1)[C@H]1C[C@@H]2CC[C@@H](N2)[C@H]1F (single isomer, unassigned) [Compound E-6B] |  |  |  |  | 0.01 to 15 nM | 12 | 3.16 ×10⁻⁶ cm/s | 39.3 ×10⁻⁶ cm/s | 62% | 76% | 0.01 to 15 nM | 16 to 50 nM |
| CN(c1nnc(-c2ccc(-c3cn[nH]c3)cc2O)s1)[C@@H]1C[C@H]2CC[C@H](N2)[C@@H]1F (single isomer, unassigned) [Compound E-7B] |  |  |  |  | 0.01 to 15 nM | 12 | 4.76 ×10⁻⁶ cm/s | 56 ×10⁻⁶ cm/s | 79% | 91% | 0.01 to 15 nM | 0.01 to 15 nM |
| CN(c1nnc(-c2ccc(-c3cc(=O)n(C)cn3)cc2O)s1)[C@@H]1C[C@H]2CC[C@H](N2)[C@@H]1F (single isomer, unassigned) [Compound E-8A] |  |  |  |  |  | 21 | 1.31 ×10⁻⁶ cm/s | 27.8 ×10⁻⁶ cm/s | 116% | 114% |  |  |
| CN(c1nnc(-c2ccc(-c3cc(=O)n(C)cn3)cc2O)s1)[C@H]1C[C@@H]2CC[C@@H](N2)[C@H]1F (single isomer, unassigned) [Compound E-8B] |  |  |  |  |  | 31 | 0.66 ×10⁻⁶ cm/s | 20.6 ×10⁻⁶ cm/s | 67% | 42% |  |  |
| CN(c1nnc(-c2cc(F)c(-c3cnn(C)c3)cc2O)s1)[C@H]1C[C@@H]2CC[C@@H](N2)[C@H]1F (single isomer, unassigned) [Compound E-9A] |  |  |  |  | 51 to 100 nM | 6 | 5.87 ×10⁻⁶ cm/s | 36.3 ×10⁻⁶ cm/s | 51% | 68% | 51 to 100 nM | 101 to 500 nM |
| CN(c1nnc(-c2cc(F)c(-c3cnn(C)c3)cc2O)s1)[C@@H]1C[C@H]2CC[C@H](N2)[C@@H]1F (single isomer, unassigned) [Compound E-9B] |  |  |  |  | 16 to 50 nM | 5 | 5.38 ×10⁻⁶ cm/s | 26 ×10⁻⁶ cm/s | 48% | 67% | 0.01 to 15 nM | 16 to 50 nM |
| CN(c1nnc(-c2ccc(-c3cnn(CF)c3)cc2O)s1)[C@H]1C[C@@H]2CC[C@@H](N2)[C@H]1F (single isomer, unassigned) [Compound E-10A] |  |  |  |  |  | 6 | 8.6 ×10⁻⁶ cm/s | 50.8 ×10⁻⁶ cm/s | 72% | 80% |  |  |
| CN(c1nnc(-c2ccc(-c3cnn(CF)c3)cc2O)s1)[C@@H]1C[C@H]2CC[C@H](N2)[C@@H]1F (single isomer, unassigned) [Compound E-10B] |  |  |  |  | 0.01 to 15 nM | 6 | 7.85 ×10⁻⁶ cm/s | 48.9 ×10⁻⁶ cm/s | 72% | 73% | 16 to 50 nM | 16 to 50 nM |
| COc1cc(-c2ccc(-c3nnc(N(C)[C@@H]4C[C@H]5CC[C@H](N5)[C@@H]4F)s3)c(O)c2)ccn1 (single isomer, unassigned) [Compound E-11A] |  |  |  |  |  | 2 | 4.19 ×10⁻⁶ cm/s | 9.76 ×10⁻⁶ cm/s | 20% | 56% |  |  |
| COc1cc(-c2ccc(-c3nnc(N(C)[C@H]4C[C@@H]5CC[C@@H](N5)[C@H]4F)s3)c(O)c2)ccn1 (single isomer, unassigned) [Compound E-11B] |  |  |  |  |  | 2 | 3.71 ×10⁻⁶ cm/s | 6.07 ×10⁻⁶ cm/s | 17% | 60% |  |  |
| CN(c1nnc(-c2ccc(-c3ccn(CF)c(=O)c3)cc2O)s1)[C@@H]1C[C@H]2CC[C@H](N2)[C@@H]1F (single isomer, unassigned) [Compound E-15A] |  |  |  |  |  | 40 | 1.39 ×10⁻⁶ cm/s | 55.6 ×10⁻⁶ cm/s | 82% | 96% |  |  |
| CN(c1nnc(-c2ccc(-c3ccn(CF)c(=O)c3)cc2O)s1)[C@H]1C[C@@H]2CC[C@@H](N2)[C@H]1F (single isomer, unassigned) [Compound E-15B] |  |  |  |  | 16 to 50 nM | 66 | 0.98 ×10⁻⁶ cm/s | 64.8 ×10⁻⁶ cm/s | 88% | 97% | 51 to 100 nM | 101 to 500 nM |
| CN(c1nnc(-c2ccc(-c3cn[nH]c3)cc2O)s1)[C@H]1C[C@@H]2CC[C@H]([C@H]1F)N2C (single isomer, unassigned) [Compound E-23A] |  |  |  |  | 101 to 500 nM | 9 | 4.65 ×10⁻⁶ cm/s | 41.2 ×10⁻⁶ cm/s | 78% | 90% | 501 to 10000 nM | 501 to 10000 nM |
| CN(c1nnc(-c2ccc(-c3cn[nH]c3)cc2O)s1)[C@@H]1C[C@H]2CC[C@@H]([C@@H]1F)N2C (single isomer, unassigned) [Compound E-23B] |  |  |  |  |  | 7 | 5.69 ×10⁻⁶ cm/s | 39 ×10⁻⁶ cm/s | 83% | 89% |  |  |
| CN(c1nnc(-c2cc(F)c(-c3cn[nH]c3)cc2O)s1)[C@H]1C[C@@H]2CC[C@H]([C@H]1F)N2C (single isomer, unassigned) [Compound E-24A] |  |  |  |  |  | 6 | 5.07 ×10⁻⁶ cm/s | 30.8 ×10⁻⁶ cm/s | 57% | 74% |  |  |
| CN(c1nnc(-c2cc(F)c(-c3cn[nH]c3)cc2O)s1)[C@@H]1C[C@H]2CC[C@@H]([C@@H]1F)N2C (single isomer, unassigned) [Compound E-24B] |  |  |  |  |  | 7 | 4.16 ×10⁻⁶ cm/s | 29.4 ×10⁻⁶ cm/s | 59% | 82% |  |  |
| CN(c1nnc(-c2ccc(-c3cnn(C)c3)cc2O)s1)[C@H]1C[C@@H]2CC[C@H]([C@H]1F)N2C (single isomer, unassigned) [Compound E-25A] |  |  |  |  |  | 4 | 8.7 ×10⁻⁶ cm/s | 32 ×10⁻⁶ cm/s | 70% | 82% |  |  |
| CN(c1nnc(-c2ccc(-c3cnn(C)c3)cc2O)s1)[C@@H]1C[C@H]2CC[C@@H]([C@@H]1F)N2C (single isomer, unassigned) [Compound E-25B] |  |  |  |  |  | 3 | 7.16 ×10⁻⁶ cm/s | 22.7 ×10⁻⁶ cm/s | 67% | 83% |  |  |
